Test results from ChEMBL document CHEMBL1221226 (Nat Chem Biol, 2009).
Residues, ends and D or L forms follow the SMILES beside them.

Key:
Glucagon receptor = Glucagon receptor (Homo sapiens, UniProt P47871); test: Agonist activity at GCGR expressed in HEK293 cells assessed as stimulation of cAMP production by luciferase reporter gene assay; assay type: functional, cell-based
[1] = biological target: Glucagon-like peptide 1 receptor (Homo sapiens, UniProt P43220); test: Agonist activity at GLP1R expressed in HEK293 cells assessed as stimulation of cAMP production by luciferase reporter gene assay; assay type: functional, cell-based
Sequence of Glucagon-like peptide 1 receptor (P43220 whole entry): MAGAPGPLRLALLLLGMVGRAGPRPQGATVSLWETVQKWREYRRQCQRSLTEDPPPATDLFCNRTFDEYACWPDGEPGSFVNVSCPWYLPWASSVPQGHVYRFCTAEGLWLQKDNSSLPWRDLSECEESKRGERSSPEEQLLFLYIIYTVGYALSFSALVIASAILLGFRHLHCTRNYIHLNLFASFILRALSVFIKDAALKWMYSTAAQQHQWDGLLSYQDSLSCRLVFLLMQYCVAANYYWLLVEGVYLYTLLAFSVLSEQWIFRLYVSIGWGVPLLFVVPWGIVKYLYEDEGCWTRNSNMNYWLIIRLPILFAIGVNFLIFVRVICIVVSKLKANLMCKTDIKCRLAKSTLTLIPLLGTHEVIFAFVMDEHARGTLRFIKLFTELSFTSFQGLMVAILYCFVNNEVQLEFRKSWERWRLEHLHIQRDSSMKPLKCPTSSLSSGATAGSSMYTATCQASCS

Sequence of Glucagon receptor (P47871 whole entry): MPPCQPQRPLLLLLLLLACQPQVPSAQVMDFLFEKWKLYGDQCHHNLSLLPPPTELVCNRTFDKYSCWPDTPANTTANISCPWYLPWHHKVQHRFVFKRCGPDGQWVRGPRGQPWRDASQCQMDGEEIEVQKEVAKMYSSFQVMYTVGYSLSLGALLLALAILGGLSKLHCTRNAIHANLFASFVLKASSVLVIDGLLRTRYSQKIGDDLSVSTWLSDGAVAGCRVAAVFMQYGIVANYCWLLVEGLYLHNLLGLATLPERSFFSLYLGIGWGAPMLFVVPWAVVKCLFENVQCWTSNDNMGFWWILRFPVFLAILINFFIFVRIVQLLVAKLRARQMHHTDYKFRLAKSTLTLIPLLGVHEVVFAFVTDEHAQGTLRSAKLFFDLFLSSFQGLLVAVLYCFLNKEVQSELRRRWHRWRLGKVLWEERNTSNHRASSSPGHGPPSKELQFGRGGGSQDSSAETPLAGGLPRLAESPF

SMILES | EC50 (Glucagon receptor) | EC50 [1] | EC50 (Glucagon receptor; hek293) | EC50 ([1]; hek293)
CSCC[C@H](NC(=O)[C@H](CC(C)C)NC(=O)[C@H](Cc1c[nH]c2ccccc12)NC(=O)[C@H](CCC(N)=O)NC(=O)[C@@H](NC(=O)[C@H](Cc1ccccc1)NC(=O)[C@H](CC(=O)O)NC(=O)[C@H](CCC(N)=O)NC(=O)[C@H](C)NC(=O)[C@H](CCCN=C(N)N)NC(=O)[C@H](CCCN=C(N)N)NC(=O)[C@@H]1CCC(=O)NCCCC[C@H](NC(=O)[C@H](CO)NC(=O)[C@H](Cc2ccc(O)cc2)NC(=O)[C@H](CC(=O)O)NC(=O)[C@H](CO)NC(=O)[C@@H](NC(=O)[C@H](Cc2ccccc2)NC(=O)[C@@H](NC(=O)CNC(=O)[C@H](CCC(N)=O)NC(=O)[C@H](CO)N[C@@H](Cc2cnc[nH]2)C(=O)O)[C@@H](C)O)[C@@H](C)O)C(=O)N[C@@H](Cc2ccc(O)cc2)C(=O)N[C@@H](CC(C)C)C(=O)N[C@@H](CC(=O)O)C(=O)N1)C(C)C)C(=O)N[C@@H](CC(N)=O)C(=O)N[C@H](C(=O)O)[C@@H](C)O | 0.046 nM | 0.051 nM |  | 
CSCC[C@H](NC(=O)[C@H](CC(C)C)NC(=O)[C@H](Cc1c[nH]c2ccccc12)NC(=O)[C@H](CCC(N)=O)NC(=O)[C@@H](NC(=O)[C@H](Cc1ccccc1)NC(=O)[C@H](CC(=O)O)NC(=O)[C@H](CCC(N)=O)NC(=O)[C@H](C)NC(=O)[C@H](CCCNC(=N)N)NC(=O)[C@H](CCCNC(=N)N)NC(=O)[C@H](CC(=O)O)NC(=O)[C@H](CC(=O)O)NC(=O)[C@H](CC(C)C)NC(=O)[C@H](Cc1ccc(O)cc1)NC(=O)[C@H](CCCCN)NC(=O)[C@H](CO)NC(=O)[C@H](Cc1ccc(O)cc1)NC(=O)[C@H](CC(=O)O)NC(=O)[C@H](CO)NC(=O)[C@@H](NC(=O)[C@H](Cc1ccccc1)NC(=O)[C@@H](NC(=O)CNC(=O)[C@H](CCC(N)=O)NC(=O)[C@H](CO)N[C@@H](Cc1cnc[nH]1)C(=O)O)[C@@H](C)O)[C@@H](C)O)C(C)C)C(=O)N[C@@H](CC(N)=O)C(=O)N[C@H](C(N)=O)[C@@H](C)O | 0.068 nM | 0.57 nM |  | 
CSCC[C@H](NC(=O)[C@H](CC(C)C)NC(=O)[C@H](Cc1c[nH]c2ccccc12)NC(=O)[C@H](CCC(N)=O)NC(=O)[C@@H](NC(=O)[C@H](Cc1ccccc1)NC(=O)[C@H](CC(=O)O)NC(=O)[C@H](CCC(N)=O)NC(=O)[C@H](C)NC(=O)[C@H](CCCNC(=N)N)NC(=O)[C@H](CCCNC(=N)N)NC(=O)[C@H](CO)NC(=O)[C@H](CC(=O)O)NC(=O)[C@H](CC(C)C)NC(=O)[C@H](Cc1ccc(O)cc1)NC(=O)[C@H](CCCCN)NC(=O)[C@H](CO)NC(=O)[C@H](Cc1ccc(O)cc1)NC(=O)[C@H](CC(=O)O)NC(=O)[C@H](CO)NC(=O)[C@@H](NC(=O)[C@H](Cc1ccccc1)NC(=O)[C@@H](NC(=O)CNC(=O)[C@H](CCC(N)=O)NC(=O)[C@H](CO)N[C@@H](Cc1cnc[nH]1)C(=O)O)[C@@H](C)O)[C@@H](C)O)C(C)C)C(=O)N[C@@H](CC(N)=O)C(=O)N[C@H](C(N)=O)[C@@H](C)O | 0.15 nM | 0.6 nM |  | 
CC[C@H](C)[C@H](NC(=O)[C@H](Cc1ccccc1)NC(=O)[C@H](CCC(=O)O)NC(=O)[C@H](CCCCN)NC(=O)[C@H](C)NC(=O)[C@H](C)NC(=O)[C@H](CCC(N)=O)NC(=O)[C@H](CCC(=O)O)NC(=O)[C@H](CC(=O)O)NC(=O)[C@H](CC(C)C)NC(=O)[C@H](Cc1ccc(O)cc1)NC(=O)[C@H](CCCCN)NC(=O)[C@H](CO)NC(=O)[C@H](Cc1ccc(O)cc1)NC(=O)[C@H](CC(=O)O)NC(=O)[C@H](CO)NC(=O)[C@@H](NC(=O)[C@H](Cc1ccccc1)NC(=O)[C@@H](NC(=O)CNC(=O)[C@H](CCC(N)=O)NC(=O)[C@H](CO)NC(=O)[C@@H](N)Cc1cnc[nH]1)[C@@H](C)O)[C@@H](C)O)C(=O)N[C@@H](C)C(=O)N[C@@H](Cc1c[nH]c2ccccc12)C(=O)N[C@@H](CC(C)C)C(=O)N[C@H](C(=O)N[C@@H](CCCCN)C(=O)NCC(=O)O)C(C)C (H-HSQGTFTSDYSKYLDEQAAKEFIAWLVKG-OH) |  |  | 0.47 nM | 0.015 nM
CSCC[C@H](NC(=O)[C@H](CC(C)C)NC(=O)[C@H](Cc1c[nH]c2ccccc12)NC(=O)[C@H](CCC(N)=O)NC(=O)[C@@H](NC(=O)[C@H](Cc1ccccc1)NC(=O)[C@H](CC(=O)O)NC(=O)[C@H](CCC(N)=O)NC(=O)[C@H](C)NC(=O)[C@H](CCCNC(=N)N)NC(=O)[C@H](CCCNC(=N)N)NC(=O)C[C@H](CCC(=O)O)NC(=O)[C@H](CC(=O)O)NC(=O)[C@H](CC(C)C)NC(=O)[C@H](Cc1ccc(O)cc1)NC(=O)[C@H](CCCCN)NC(=O)[C@H](CO)NC(=O)[C@H](Cc1ccc(O)cc1)NC(=O)[C@H](CC(=O)O)NC(=O)[C@H](CO)NC(=O)[C@@H](NC(=O)[C@H](Cc1ccccc1)NC(=O)[C@@H](NC(=O)CNC(=O)[C@H](CCC(N)=O)NC(=O)[C@H](CO)N[C@@H](Cc1cnc[nH]1)C(=O)O)[C@@H](C)O)[C@@H](C)O)C(C)C)C(=O)N[C@@H](CC(N)=O)C(=O)N[C@H](C(N)=O)[C@@H](C)O | 0.054 nM | 0.13 nM |  | 
CSCC[C@H](NC(=O)[C@H](CC(C)C)NC(=O)[C@H](Cc1c[nH]c2ccccc12)NC(=O)[C@H](CCC(N)=O)NC(=O)[C@@H](NC(=O)[C@H](Cc1ccccc1)NC(=O)[C@H](CC(=O)O)NC(=O)[C@H](CCCCN)NC(=O)[C@H](C)NC(=O)[C@H](CCCN=C(N)N)NC(=O)[C@H](CCC(N)=O)NC(=O)[C@H](CCC(=O)O)NC(=O)[C@H](CC(=O)O)NC(=O)[C@H](CC(C)C)NC(=O)[C@H](Cc1ccc(O)cc1)NC(=O)[C@H](CCCCN)NC(=O)[C@H](CO)NC(=O)[C@H](Cc1ccc(O)cc1)NC(=O)[C@H](CC(=O)O)NC(=O)[C@H](CO)NC(=O)[C@@H](NC(=O)[C@H](Cc1ccccc1)NC(=O)[C@@H](NC(=O)CNC(=O)[C@H](CCC(N)=O)NC(=O)[C@H](CO)N[C@@H](Cc1cnc[nH]1)C(=O)O)[C@@H](C)O)[C@@H](C)O)C(C)C)C(=O)N[C@@H](CC(N)=O)C(=O)N[C@H](C(N)=O)[C@@H](C)O | 0.048 nM | 0.075 nM |  | 
CSCC[C@H](NC(=O)[C@H](CC(C)C)NC(=O)[C@H](Cc1c[nH]c2ccccc12)NC(=O)[C@H](CCC(N)=O)NC(=O)[C@@H](NC(=O)[C@H](Cc1ccccc1)NC(=O)[C@H](CC(=O)O)NC(=O)[C@H](CCCCN)NC(=O)[C@H](C)NC(=O)[C@H](CCCN=C(N)N)NC(=O)[C@H](CCCN=C(N)N)NC(=O)[C@H](CCC(=O)O)NC(=O)[C@H](CC(=O)O)NC(=O)[C@H](CC(C)C)NC(=O)[C@H](Cc1ccc(O)cc1)NC(=O)[C@H](CCCCN)NC(=O)[C@H](CO)NC(=O)[C@H](Cc1ccc(O)cc1)NC(=O)[C@H](CC(=O)O)NC(=O)[C@H](CO)NC(=O)[C@@H](NC(=O)[C@H](Cc1ccccc1)NC(=O)[C@@H](NC(=O)CNC(=O)[C@H](CCC(N)=O)NC(=O)[C@H](CO)N[C@@H](Cc1cnc[nH]1)C(=O)O)[C@@H](C)O)[C@@H](C)O)C(C)C)C(=O)N[C@@H](CC(N)=O)C(=O)N[C@H](C(N)=O)[C@@H](C)O | 0.077 nM | 0.071 nM |  | 
CSCC[C@H](NC(=O)[C@H](CC(C)C)NC(=O)[C@H](Cc1c[nH]c2ccccc12)NC(=O)[C@H](CCC(N)=O)NC(=O)[C@@H](NC(=O)[C@H](Cc1ccccc1)NC(=O)[C@H](CC(=O)O)NC(=O)[C@@H]1CCCCNC(=O)CC[C@H](NC(=O)[C@H](CC(=O)O)NC(=O)[C@H](CC(C)C)NC(=O)[C@H](Cc2ccc(O)cc2)NC(=O)[C@H](CCCCN)NC(=O)[C@H](CO)NC(=O)[C@H](Cc2ccc(O)cc2)NC(=O)[C@H](CC(=O)O)NC(=O)[C@H](CO)NC(=O)[C@@H](NC(=O)[C@H](Cc2ccccc2)NC(=O)[C@@H](NC(=O)CNC(=O)[C@H](CCC(N)=O)NC(=O)[C@H](CO)N[C@@H](Cc2cnc[nH]2)C(=O)O)[C@@H](C)O)[C@@H](C)O)C(=O)N[C@@H](CCCNC(=N)N)C(=O)N[C@@H](CCCNC(=N)N)C(=O)N[C@@H](C)C(=O)N1)C(C)C)C(=O)N[C@@H](CC(N)=O)C(=O)N[C@H](C(=O)O)[C@@H](C)O | 0.058 nM | 0.049 nM |  | 
CC[C@H](C)[C@H](NC(=O)[C@H](Cc1ccccc1)NC(=O)[C@H](CC(=O)O)NC(=O)[C@H](CCCCN)NC(=O)[C@H](C)NC(=O)[C@H](CCCNC(=N)N)NC(=O)[C@H](CCCNC(=N)N)NC(=O)[C@H](CCC(=O)O)NC(=O)[C@H](CC(=O)O)NC(=O)[C@H](CC(C)C)NC(=O)[C@H](Cc1ccc(O)cc1)NC(=O)[C@H](CCCCN)NC(=O)[C@H](CO)NC(=O)[C@H](Cc1ccc(O)cc1)NC(=O)[C@H](CC(=O)O)NC(=O)[C@H](CO)NC(=O)[C@@H](NC(=O)[C@H](Cc1ccccc1)NC(=O)[C@@H](NC(=O)CNC(=O)[C@H](CCC(N)=O)NC(=O)[C@H](CO)N[C@@H](Cc1cnc[nH]1)C(=O)O)[C@@H](C)O)[C@@H](C)O)C(=O)N[C@@H](CCC(N)=O)C(=O)N[C@@H](Cc1c[nH]c2ccccc12)C(=O)N[C@@H](CC(C)C)C(=O)N[C@@H](CCSC)C(=O)N[C@@H](CC(N)=O)C(=O)N[C@H](C(=O)N[C@H](C(N)=O)[C@@H](C)O)[C@@H](C)O | 0.073 nM | 0.068 nM |  | 
CC[C@H](C)[C@H](NC(=O)[C@H](Cc1ccccc1)NC(=O)[C@H](CCC(=O)O)NC(=O)[C@H](CCCCN)NC(=O)[C@H](C)NC(=O)[C@H](C)NC(=O)[C@H](CCC(=O)O)NC(=O)[C@H](CCC(=O)O)NC(=O)[C@H](CCC(=O)O)NC(=O)[C@H](CC(C)C)NC(=O)[C@H](Cc1ccc(O)cc1)NC(=O)[C@H](CO)NC(=O)[C@H](CO)NC(=O)[C@@H](NC(=O)[C@H](CC(=O)O)NC(=O)[C@H](CO)NC(=O)[C@@H](NC(=O)[C@H](Cc1ccccc1)NC(=O)[C@@H](NC(=O)CNC(=O)[C@H](CCC(=O)O)NC(=O)[C@H](C)N[C@@H](Cc1cnc[nH]1)C(=O)O)[C@@H](C)O)[C@@H](C)O)C(C)C)C(=O)N[C@@H](C)C(=O)N[C@@H](Cc1c[nH]c2ccccc12)C(=O)N[C@@H](CC(C)C)C(=O)N[C@H](C(=O)N[C@@H](CCCCN)C(=O)NCC(=O)N[C@@H](CCN=C(N)N)C(N)=O)C(C)C | > 1000 nM | 0.011 nM |  | 
